Laboratory results from patent US12139492B2 (Endotarget Inc., priority 2021, dated 2024).

How the values were obtained:
Format in all cases: cell-based
[1] = tested on: Mino cells; assay: Antiproliferative effect, MTS cell viability assay, Mino cells; settings: Homo sapiens, MINO, Mino mantle cell lymphoma cells; read-out: IC50 (anti-proliferation) Mino cells
Outline: (§1)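 Mino and JeKo-1 mantle B-cell lymphoma lines were exposed to compound at 0, 0.001, 0.01, 0.1, 1 and 10 μM for 72 h. Viability was read by MTS reduction to formazan, measured as absorbance at 490 nm.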

[2] = tested on: JeKo-1 cells; assay: Antiproliferative effect, MTS cell viability assay, JeKo-1 cells; settings: Homo sapiens; JeKo-1 mantle cell lymphoma cells; read-out: IC50 (anti-proliferation) JeKO-1 cells
Outline: as §1

[3] = molecular target: BTK (Homo sapiens, UniProt Q06187); assay: BTK degradation, DC50 and Dmax of Table 1 (cell line not given); set-up: endogenous in cells; settings: for DC50: concentration giving 50% reduction of BTK expression level
Chain of BTK (Q06187 whole entry): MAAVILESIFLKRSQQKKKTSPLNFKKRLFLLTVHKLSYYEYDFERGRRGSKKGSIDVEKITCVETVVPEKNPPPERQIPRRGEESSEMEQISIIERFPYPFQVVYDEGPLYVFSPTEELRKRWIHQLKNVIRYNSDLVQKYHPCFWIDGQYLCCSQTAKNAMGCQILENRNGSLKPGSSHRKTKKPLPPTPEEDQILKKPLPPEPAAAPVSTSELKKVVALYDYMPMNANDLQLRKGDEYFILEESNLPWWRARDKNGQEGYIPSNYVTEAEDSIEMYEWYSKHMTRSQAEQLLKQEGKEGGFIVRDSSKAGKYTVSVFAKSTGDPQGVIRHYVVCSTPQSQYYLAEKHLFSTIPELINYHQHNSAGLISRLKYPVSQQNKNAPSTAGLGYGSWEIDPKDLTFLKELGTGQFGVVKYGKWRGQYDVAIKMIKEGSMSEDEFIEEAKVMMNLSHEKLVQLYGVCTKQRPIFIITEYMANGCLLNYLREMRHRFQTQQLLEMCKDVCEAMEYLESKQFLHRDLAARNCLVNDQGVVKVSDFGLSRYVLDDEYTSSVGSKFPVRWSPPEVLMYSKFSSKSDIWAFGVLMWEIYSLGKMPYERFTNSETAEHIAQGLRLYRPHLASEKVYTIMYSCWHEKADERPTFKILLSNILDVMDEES

SMILES | IC50 [1] | IC50 [2] | Dmax [3] | DC50 [3]
Nc1ncnc2c1c(-c1ccc(Oc3ccccc3)cc1)nn2C1CCN(C(=O)N2CCN(c3ccc4c(c3)CN(C3CCC(=O)NC3=O)C4=O)CC2)CC1 (stereo not drawn) [Compound 76, 3-(5-(4-(4-(4-amino-3-(4-phenoxyphenyl)-1H-pyrazolo[3,4-d]pyrimidin-1-yl)piperidine-1-carbonyl)piperazin-1-yl)-1-oxoisoindolin-2-yl)piperidine-2,6-dione] | > 10 µM | > 10 µM | > 50% | > 50 nM
Nc1ncnc2c1c(-c1ccc(Oc3ccccc3)cc1)nn2C1CCN(C(=O)N2CCC(c3ccc4c(c3)C(=O)N(C3CCC(=O)NC3=O)C4=O)CC2)CC1 (stereo not drawn) [Compound 77, 5-(1-(4-(4-amino-3-(4-phenoxyphenyl)-1H-pyrazolo[3,4-d]pyrimidin-1-yl)piperidine-1-carbonyl)piperidin-4-yl)-2-(2,6-dioxopiperidin-3-yl)isoindoline-1,3-dione] | > 10 µM | > 10 µM | > 50% | > 50 nM
Nc1ncnc2c1c(-c1ccc(Oc3ccccc3)cc1)nn2C1CCN(C(=O)N2CCC(c3ccc4c(c3)CN(C3CCC(=O)NC3=O)C4=O)CC2)CC1 (stereo not drawn) [Compound 78, 3-(5-(1-(4-(4-amino-3-(4-phenoxyphenyl)-1H-pyrazolo[3,4-d]pyrimidin-1-yl)piperidine-1-carbonyl)piperidin-4-yl)-1-oxoisoindolin-2-yl)piperidine-2,6-dione] | > 10 µM | > 10 µM | > 50% | > 50 nM
Nc1ncnc2c1c(-c1ccc(Oc3ccccc3)cc1)nn2C1CCN(C(=O)N2CCC(N3CCN(c4ccc5c(c4)CN(C4CCC(=O)NC4=O)C5=O)CC3)CC2)CC1 (stereo not drawn) [Compound 82, 3-(5-(4-(1-(4-(4-amino-3-(4-phenoxyphenyl)-1H-pyrazolo(3,4-d)pyrimidin-1-yl)piperidine-1-carbonyl)piperidin-4-yl)piperazin-1-yl)-1-oxoisoindolin-2-yl)piperidine-2,6-dione] | > 10 µM | > 10 µM | > 75% | 10 to 50 nM
Nc1ncnc2c1c(-c1ccc(Oc3ccccc3)cc1)nn2C1CCN(C(=O)N2CCC(N3CCC(c4ccc5c(c4)C(=O)N(C4CCC(=O)NC4=O)C5=O)CC3)CC2)CC1 (stereo not drawn) [Compound 83, 5-(1′-(4-(4-amino-3-(4-phenoxyphenyl)-1H-pyrazolo[3,4-d]pyrimidin-1-yl)piperidine-1-carbonyl)-[1,4′-bipiperidin]-4-yl)-2-(2,6-dioxopiperidin-3-yl)isoindoline-1,3-dione] | > 10 µM | > 10 µM | > 75% | > 50 nM
Nc1ncnc2c1c(-c1ccc(Oc3ccccc3)cc1)nn2C1CCN(C(=O)N2CCC(N3CCC(c4ccc5c(c4)CN(C4CCC(=O)NC4=O)C5=O)CC3)CC2)CC1 (stereo not drawn) [Compound 84, 3-(5-(1′-(4-(4-amino-3-(4-phenoxyphenyl)-1H-pyrazolo[3,4-d]pyrimidin-1-yl)piperidine-1-carbonyl)-[1,4′-bipiperidin]-4-yl)-1-oxoisoindolin-2-yl)piperidine-2,6-dione] | > 10 µM | > 10 µM | > 75% | > 50 nM
Nc1ncnc2c1c(-c1ccc(Oc3ccccc3)cc1)nn2C1CCN(C(=O)N2CCN(CC3CCN(c4ccc5c(c4)C(=O)N(C4CCC(=O)NC4=O)C5=O)CC3)CC2)CC1 (stereo not drawn) [Compound 87, 5-(4-((4-(4-(4-amino-3-(4-phenoxyphenyl)-1H-pyrazolo[3,4-d]pyrimidin-1-yl)piperidine-1-carbonyl)piperazin-1-yl)methyl)piperidin-1-yl)-2-(2,6-dioxopiperidin-3-yl)isoindoline-1,3-dione] | 1 to 10 µM | < 1 µM | > 90% | 10 to 50 nM
Nc1ncnc2c1c(-c1ccc(Oc3ccccc3)cc1)nn2C1CCN(C(=O)N2CCN(CC3CCN(c4ccc5c(c4)CN(C4CCC(=O)NC4=O)C5=O)CC3)CC2)CC1 (stereo not drawn) [Compound 88, 3-(5-(4-((4-(4-(4-amino-3-(4-phenoxyphenyl)-1H-pyrazolo[3,4-d]pyrimidin-1-yl)piperidine-1-carbonyl)piperazin-1-yl)methyl)piperidin-1-yl)-1-oxoisoindolin-2-yl)piperidine-2,6-dione] | < 1 µM | < 1 µM | > 90% | 10 to 50 nM
Nc1ncnc2c1c(-c1ccc(Oc3ccccc3)cc1)nn2C1CCN(C(=O)N2CCC(CC3CCN(c4ccc5c(c4)C(=O)N(C4CCC(=O)NC4=O)C5=O)CC3)CC2)CC1 (stereo not drawn) [Compound 89, 5-(4-((1-(4-(4-amino-3-(4-phenoxyphenyl)-1H-pyrazolo[3,4-d]pyrimidin-1-yl)piperidine-1-carbonyl)piperidin-4-yl)methyl)piperidin-1-yl)-2-(2,6-dioxopiperidin-3-yl)isoindoline-1,3-dione] | < 1 µM | 1 to 10 µM | > 90% | 10 to 50 nM
Nc1ncnc2c1c(-c1ccc(Oc3ccccc3)cc1)nn2C1CCN(C(=O)N2CCC(CC3CCN(c4ccc5c(c4)CN(C4CCC(=O)NC4=O)C5=O)CC3)CC2)CC1 (stereo not drawn) [Compound 90, 3-(5-(4-((1-(4-(4-amino-3-(4-phenoxyphenyl)-1H-pyrazolo[3,4-d]pyrimidin-1-yl)piperidine-1-carbonyl)piperidin-4-yl)methyl)piperidin-1-yl)-1-oxoisoindolin-2-yl)piperidine-2,6-dione] | 1 to 10 µM | 1 to 10 µM | > 90% | < 10 nM
Nc1ncnc2c1c(-c1ccc(Oc3ccccc3)cc1)nn2C1CCN(C(=O)N2CCC(CN3CCC(c4ccc5c(c4)C(=O)N(C4CCC(=O)NC4=O)C5=O)CC3)CC2)CC1 (stereo not drawn) [Compound 91, 5-(1-((1-(4-(4-amino-3-(4-phenoxyphenyl)-1H-pyrazolo[3,4-d]pyrimidin-1-yl)piperidine-1-carbonyl)piperidin-4-yl)methyl)piperidin-4-yl)-2-(2,6-dioxopiperidin-3-yl)isoindoline-1,3-dione] | 1 to 10 µM | 1 to 10 µM | > 90% | < 10 nM
Nc1ncnc2c1c(-c1ccc(Oc3ccccc3)cc1)nn2C1CCN(C(=O)N2CCC(CN3CCC(c4ccc5c(c4)CN(C4CCC(=O)NC4=O)C5=O)CC3)CC2)CC1 (stereo not drawn) [Compound 92, 3-(5-(1-((1-(4-(4-amino-3-(4-phenoxyphenyl)-1H-pyrazolo[3,4-d]pyrimidin-1-yl)piperidine-1-carbonyl)piperidin-4-yl)methyl)piperidin-4-yl)-1-oxoisoindolin-2-yl)piperidine-2,6-dione] | < 1 µM | 1 to 10 µM | > 90% | < 10 nM
Nc1ncnc2c1c(-c1ccc(Oc3ccccc3)cc1)nn2C1CCN(C(=O)N2CCC(CCN3CCN(c4ccc5c(c4)CN(C4CCC(=O)NC4=O)C5=O)CC3)CC2)CC1 (stereo not drawn) [Compound 94, 3-(5-(4-(2-(1-(4-(4-amino-3-(4-phenoxyphenyl)-1H-pyrazolo[3,4-d]pyrimidin-1-yl)piperidine-1-carbonyl)piperidin-4-yl)ethyl)piperazin-1-yl)-1-oxoisoindolin-2-yl)piperidine-2,6-dione] | < 1 µM | 1 to 10 µM | > 90% | 10 to 50 nM
Nc1ncnc2c1c(-c1ccc(Oc3ccccc3)cc1)nn2C1CCN(C(=O)N2CCN(CCN3CCN(c4ccc5c(c4)C(=O)N(C4CCC(=O)NC4=O)C5=O)CC3)CC2)CC1 (stereo not drawn) [Compound 95, 5-(4-(2-(4-(4-(4-amino-3-(4-phenoxyphenyl)-1H-pyrazolo[3,4-d]pyrimidin-1-yl)piperidine-1-carbonyl)piperazin-1-yl)ethyl)piperazin-1-yl)-2-(2,6-dioxopiperidin-3-yl)isoindoline-1,3-dione] | 1 to 10 µM | < 1 µM | > 90% | 10 to 50 nM
Nc1ncnc2c1c(-c1ccc(Oc3ccccc3)cc1)nn2C1CCN(C(=O)N2CCN(CCN3CCN(c4ccc5c(c4)CN(C4CCC(=O)NC4=O)C5=O)CC3)CC2)CC1 (stereo not drawn) [Compound 96, 3-(5-(4-(2-(4-(4-(4-amino-3-(4-phenoxyphenyl)-1H-pyrazolo[3,4-d]pyrimidin-1-yl)piperidine-1-carbonyl)piperazin-1-yl)ethyl)piperazin-1-yl)-1-oxoisoindolin-2-yl)piperidine-2,6-dione] | 1 to 10 µM | 1 to 10 µM | > 90% | 10 to 50 nM
Nc1ncnc2c1c(-c1ccc(Oc3ccccc3)cc1)nn2C1CCN(C(=O)N2CCN(CCC3CCN(c4ccc5c(c4)C(=O)N(C4CCC(=O)NC4=O)C5=O)CC3)CC2)CC1 (stereo not drawn) [Compound 97, 5-(4-(2-(4-(4-(4-amino-3-(4-phenoxyphenyl)-1H-pyrazolo[3,4-d]pyrimidin-1-yl)piperidine-1-carbonyl)piperazin-1-yl)ethyl)piperidin-1-yl)-2-(2,6-dioxopiperidin-3-yl)isoindoline-1,3-dione] | 1 to 10 µM | 1 to 10 µM | > 90% | 10 to 50 nM
Nc1ncnc2c1c(-c1ccc(Oc3ccccc3)cc1)nn2C1CCN(C(=O)N2CCN(CCC3CCN(c4ccc5c(c4)CN(C4CCC(=O)NC4=O)C5=O)CC3)CC2)CC1 (stereo not drawn) [Compound 98, 3-(5-(4-(2-(4-(4-(4-amino-3-(4-phenoxyphenyl)-1H-pyrazolo[3,4-d]pyrimidin-1-yl)piperidine-1-carbonyl)piperazin-1-yl)ethyl)piperidin-1-yl)-1-oxoisoindolin-2-yl)piperidine-2,6-dione] | 1 to 10 µM | 1 to 10 µM | > 90% | 10 to 50 nM
Nc1ncnc2c1c(-c1ccc(Oc3ccccc3)cc1)nn2C1CCN(C(=O)N2CCN(CCN3CCC(c4ccc5c(c4)C(=O)N(C4CCC(=O)NC4=O)C5=O)CC3)CC2)CC1 (stereo not drawn) [Compound 99, 5-(1-(2-(4-(4-(4-amino-3-(4-phenoxyphenyl)-1H-pyrazolo[3,4-d]pyrimidin-1-yl)piperidine-1-carbonyl)piperazin-1-yl)ethyl)piperidin-4-yl)-2-(2,6-dioxopiperidin-3-yl)isoindoline-1,3-dione] | > 10 µM | 1 to 10 µM | > 90% | 10 to 50 nM
